Measured values reported in the supplement of paper PMC6045584.
± gives the standard deviation of the averaged measurements.

Compound: CNC(=O)c1ccc(N2C(=S)N(c3ccc(C#N)c(C(F)(F)F)c3)C(=O)C2(C)C)cc1F [MDV3100]
Test: surviving fraction relative to DMSO-only wells; higher = less growth inhibition
Conditions: exposure time: 5 days
Summary of the method: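 Tumour cell lines were seeded in log phase at 250–500 cells per well into 384-well plates. Starting 24 hours later, inhibitors were present continuously for five days at 0.5, 1, 5, 10, 50, 100, 500 and 1000 nM. Surviving fraction, from CellTiter-Glo luminescence, is normalised to the median of DMSO-only wells. Three screens per line were required, with replicate Pearson r >0.7 and median Z' >0.3 for a line to be kept.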

Row | Test System | surviving fraction (0.5 nM) | surviving fraction (1 nM) | surviving fraction (5 nM) | surviving fraction (10 nM) | surviving fraction (50 nM) | surviving fraction (100 nM) | surviving fraction (500 nM) | surviving fraction (1000 nM)
1 | HOS BONE | 1.007 ± 0.0093 | 0.9937 ± 0.0011 | 1.01 ± 0.017 | 0.982 ± 0.0062 | 1.05 ± 0.022 | 1.05 ± 0.021 | 1.05 ± 0.017 | 1.015 ± 0.0067
2 | NCIH441 LUNG | 1.02 ± 0.05 | 1.04 ± 0.066 | 1.03 ± 0.052 | 1 ± 0.071 | 1.05 ± 0.077 | 0.924 ± 0.11 | 0.956 ± 0.16 | 0.863 ± 0.11
3 | MDAMB468 BREAST | 0.972 ± 0.053 | 0.952 ± 0.072 | 1.05 ± 0.11 | 1.01 ± 0.068 | 1.14 ± 0.094 | 1.04 ± 0.13 | 1.05 ± 0.038 | 0.97 ± 0.11
4 | SG32 HEADNECK | 1.21 ± 0.56 | 0.976 ± 0.13 | 0.988 ± 0.033 | 0.794 ± 0.073 | 1.16 ± 0.17 | 1 ± 0.3 | 1.01 ± 0.044 | 1.09 ± 0.26
5 | RDES SOFT TISSUE | 1.25 ± 0.1 | 1.07 ± 0.035 | 1.11 ± 0.064 | 1.15 ± 0.11 | 1.2 ± 0.086 | 1.12 ± 0.21 | 1.38 ± 0.074 | 1.25 ± 0.19
6 | 93VU HEADNECK | 0.848 ± 0.096 | 0.876 ± 0.058 | 1.05 ± 0.099 | 0.994 ± 0.12 | 1.07 ± 0.15 | 1.04 ± 0.22 | 0.887 ± 0.03 | 0.771 ± 0.016
7 | SIHA CERVIX | 0.88 ± 0.024 | 0.824 ± 0.067 | 0.999 ± 0.038 | 0.97 ± 0.057 | 1.01 ± 0.076 | 0.975 ± 0.043 | 0.875 ± 0.086 | 0.844 ± 0.055
8 | LM7 BONE | 0.992 ± 0.053 | 1.01 ± 0.073 | 1.07 ± 0.096 | 1.06 ± 0.03 | 1.15 ± 0.09 | 1.14 ± 0.087 | 1.07 ± 0.096 | 0.963 ± 0.05
9 | ASKA SYNOVIAL | 1.01 ± 0.051 | 0.966 ± 0.037 | 1.05 ± 0.017 | 0.59 ± 0.051 | 1.15 ± 0.13 | 1.07 ± 0.065 | 1.14 ± 0.095 | 0.678 ± 0.079
10 | MG63 BONE | 0.988 ± 0.0044 | 0.953 ± 0.026 | 1.01 ± 0.015 | 0.999 ± 0.028 | 1.02 ± 0.013 | 1.02 ± 0.019 | 0.968 ± 0.03 | 0.931 ± 0.011
11 | 22RV1 PROSTATE | 0.953 ± 0.067 | 0.954 ± 0.061 | 0.997 ± 0.051 | 0.938 ± 0.066 | 0.934 ± 0.12 | 0.968 ± 0.04 | 0.862 ± 0.21 | 0.781 ± 0.27
12 | HCC1954 BREAST | 1.12 ± 0.018 | 0.975 ± 0.18 | 1.17 ± 0.19 | 1.25 ± 0.25 | 0.919 ± 0.077 | 0.909 ± 0.017 | 0.9483 ± 0.0088 | 0.771 ± 0.012
13 | HS57T BREAST | 0.866 ± 0.091 | 0.918 ± 0.032 | 0.963 ± 0.033 | 0.947 ± 0.12 | 0.847 ± 0.069 | 0.955 ± 0.043 | 0.923 ± 0.068 | 0.912 ± 0.041
14 | VCAP PROSTATE | 1.04 ± 0.12 | 1.06 ± 0.23 | 1.09 ± 0.12 | 1.11 ± 0.14 | 1.13 ± 0.058 | 1.09 ± 0.15 | 0.837 ± 0.07 | 0.722 ± 0.1
15 | CAL72 BONE | 0.965 ± 0.087 | 0.992 ± 0.041 | 1 ± 0.073 | 1 ± 0.021 | 1.08 ± 0.076 | 0.986 ± 0.17 | 1.05 ± 0.13 | 1.02 ± 0.15
16 | OSHN BONE | 1.04 ± 0.02 | 1.02 ± 0.019 | 1.025 ± 0.0047 | 1.01 ± 0.015 | 1.067 ± 0.0085 | 1.07 ± 0.04 | 1.07 ± 0.026 | 1.041 ± 0.0068
17 | SAOS2 BONE | 1.08 ± 0.054 | 1.07 ± 0.026 | 1.17 ± 0.026 | 1.07 ± 0.031 | 1.14 ± 0.033 | 1.14 ± 0.1 | 1.11 ± 0.085 | 1.07 ± 0.12
18 | HUO3N1 BONE | 1.01 ± 0.018 | 0.989 ± 0.025 | 1.01 ± 0.044 | 1.03 ± 0.044 | 1.06 ± 0.054 | 1.02 ± 0.041 | 1.01 ± 0.069 | 1.01 ± 0.019

Row | Test System | surviving fraction (0.5 nM) | surviving fraction (1 nM) | surviving fraction (5 nM) | surviving fraction (10 nM) | surviving fraction (50 nM) | surviving fraction (100 nM) | surviving fraction (500 nM) | surviving fraction (1000 nM)
19 | SG27 HEADNECK | 1.064 ± 0.0067 | 1.01 ± 0.12 | 1.07 ± 0.13 | 0.935 ± 0.091 | 1.09 ± 0.04 | 1.19 ± 0.081 | 1.21 ± 0.2 | 1.17 ± 0.19
20 | SCC36 HEADNECK | 0.992 ± 0.091 | 0.955 ± 0.1 | 0.957 ± 0.065 | 1.11 ± 0.068 | 1.09 ± 0.028 | 1.03 ± 0.059 | 0.924 ± 0.051 | 0.907 ± 0.099
21 | CAL120 BREAST | 0.906 ± 0.066 | 0.905 ± 0.025 | 0.931 ± 0.051 | 0.925 ± 0.077 | 0.941 ± 0.058 | 0.935 ± 0.042 | 0.953 ± 0.059 | 0.955 ± 0.025
22 | HCT15 LARGE INTESTINE | 0.906 ± 0.038 | 0.797 ± 0.11 | 0.862 ± 0.075 | 0.548 ± 0.11 | 0.938 ± 0.021 | 0.916 ± 0.027 | 0.968 ± 0.019 | 0.716 ± 0.1
23 | HCC38 BREAST | 1.02 ± 0.14 | 1.27 ± 0.2 | 1.28 ± 0.038 | 1.1 ± 0.066 | 1.25 ± 0.027 | 1.35 ± 0.11 | 1.28 ± 0.038 | 1.13 ± 0.19
24 | CAL51 BREAST | 0.969 ± 0.025 | 0.944 ± 0.014 | 0.985 ± 0.016 | 0.976 ± 0.013 | 0.984 ± 0.029 | 1.05 ± 0.042 | 0.978 ± 0.11 | 0.979 ± 0.082
25 | COLO320DM LARGE INTESTINE | 1.18 ± 0.14 | 0.995 ± 0.087 | 1.13 ± 0.022 | 0.533 ± 0.021 | 1.13 ± 0.086 | 1.042 ± 0.0052 | 1.12 ± 0.057 | 0.754 ± 0.052
26 | SKBR3 BREAST | 1.02 ± 0.093 | 1.09 ± 0.12 | 1.11 ± 0.069 | 1.1 ± 0.17 | 1 ± 0.11 | 1.052 ± 0.0065 | 0.971 ± 0.046 | 1.09 ± 0.18
27 | HMLE3 BREAST | 0.981 ± 0.05 | 0.951 ± 0.018 | 0.984 ± 0.026 | 0.946 ± 0.049 | 0.975 ± 0.12 | 1 ± 0.09 | 0.98 ± 0.058 | 1.03 ± 0.083
28 | HMT3552 BREAST | 1.02 ± 0.073 | 1.02 ± 0.079 | 1.02 ± 0.013 | 1.03 ± 0.065 | 1.14 ± 0.031 | 1.23 ± 0.023 | 1.18 ± 0.053 | 1.24 ± 0.086
29 | SNU475 LIVER | 1.03 ± 0.034 | 0.903 ± 0.024 | 1 ± 0.039 | 0.438 ± 0.011 | 1.01 ± 0.018 | 0.902 ± 0.016 | 0.974 ± 0.014 | 0.516 ± 0.02
30 | OS25HAL BONE | 0.968 ± 0.03 | 0.932 ± 0.015 | 0.962 ± 0.018 | 0.959 ± 0.011 | 1.06 ± 0.013 | 1.06 ± 0.03 | 1.04 ± 0.026 | 1.01 ± 0.057
31 | SG43 HEADNECK | 0.866 ± 0.21 | 1.01 ± 0.25 | 0.913 ± 0.11 | 0.952 ± 0.14 | 0.702 ± 0.11 | 0.998 ± 0.28 | 1.17 ± 0.06 | 1.16 ± 0.065
32 | PCI30 HEADNECK | 0.908 ± 0.034 | 0.831 ± 0.075 | 0.954 ± 0.071 | 1.01 ± 0.08 | 1.09 ± 0.056 | 1 ± 0.014 | 0.861 ± 0.088 | 0.945 ± 0.036
33 | SYO1 SYNOVIAL | 0.989 ± 0.036 | 0.883 ± 0.051 | 0.946 ± 0.018 | 0.546 ± 0.027 | 0.91 ± 0.023 | 0.914 ± 0.032 | 0.987 ± 0.05 | 0.653 ± 0.023
34 | CHLA90 AUTONOMIC GANGLIA | 0.946 ± 0.11 | 0.812 ± 0.07 | 0.878 ± 0.077 | 0.362 ± 0.028 | 1 ± 0.078 | 0.94 ± 0.12 | 1 ± 0.076 | 0.625 ± 0.14
35 | MFM223 BREAST | 1.1 ± 0.12 | 1.14 ± 0.17 | 1.19 ± 0.17 | 1.12 ± 0.17 | 1.06 ± 0.074 | 1.08 ± 0.041 | 1.09 ± 0.036 | 1.02 ± 0.095
